Common to all, as to experiment: NCI tumour cell line growth inhibition, 48 h
In assay [1] the test system is ACHN.
Assay [2] concerns SNB-75.
Assay [3] has as its system SK-MEL-2.
For assay [4], the system named is SW-620.
Assay [5] deals with M14.
Assay [6] concerns NCI-H226.
The test system of assay [7] is SK-MEL-5.
Assay [8] deals with HCT-15.
Assay [9] has as its system HOP-92.
The test system of assay [10] is K562.
For assay [11], the system named is SK-MEL-28.
Assay [12] concerns UACC-257.
The subject of assay [13] is SF-539.
Assay [14] relates to KM12.
In assay [15] the test system is IGROV-1.
For assay [16], the system named is SK-OV-3.
For assay [17], the system named is HL-60.

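Interpolation was linear, between the two tested concentrations surrounding the appropriate level; five concentrations were tested over 48 hours in 96-well plates. GI50 marks 50% less growth.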 Calls of active or inactive are those of the source. No stated cut-off is given here; in the data, active = GI50 up to about 1.1 µM and inactive = higher.

For `COc1ccc(Cc2c(=O)[nH]nc3ccccc23)cc1`, the GI50 in assay [1] was > 100 µM (inactive); in assay [2], 29 µM (inactive); in [3], > 100 µM (inactive); in [4], > 100 µM (inactive); in assay [5] it was > 100 µM (inactive); in assay [6], 85.7 µM (inactive). Also, the GI50 was 35.2 µM (inactive) in [7]; more than 100 µM in [8]; > 100 µM (inactive) in [9]; > 100 µM (inactive) in [10]; > 100 µM (inactive) in [11]; > 100 µM (inactive) in assay [12]. The GI50 in assay [13], in [14], in assay [15] and in [16] was > 100 µM (inactive) throughout.

With `CCCCn1c2ccccc2c2ccc3c(c21)C(=O)C=CC3=O`, the GI50 is > 100 µM (inactive) in assay [1]; 0.0521 µM (active) in assay [2]; > 100 µM (inactive) in assay [3]; > 100 µM (inactive) in assay [4]; > 100 µM (inactive) in [5]; > 100 µM (inactive) in assay [6]. The GI50 in [7] was > 100 µM (inactive); in assay [8], more than 100 µM; in assay [9], > 100 µM (inactive); in [10] it was 84.3 µM (inactive); in assay [11], > 100 µM (inactive); in assay [12], > 100 µM (inactive). In addition, the GI50 in assay [13], in assay [14], in [15] and in assay [16] was > 100 µM (inactive) in each case.

Regarding `CCCOC(=O)C1CCC(=O)N1C(=O)C(Cl)Cl` (stereo not drawn), the GI50 in assay [1] was > 100 µM (inactive); in assay [2], 59 µM (inactive); in [3], > 100 µM (inactive); in [4], > 100 µM (inactive); in assay [5], > 100 µM (inactive); in assay [6], > 100 µM (inactive). Also, the GI50 was > 100 µM (inactive) in assay [7]; more than 100 µM in assay [8]; > 100 µM (inactive) in assay [9]; > 100 µM (inactive) in assay [17]; > 100 µM (inactive) in [10]; > 100 µM (inactive) in assay [11]. For the same molecule, the GI50 in assay [12], in assay [14], in assay [15] and in [16] was > 100 µM (inactive) in each case.

As to `Cc1ccc(N2C(=O)CS/C2=C(\C#N)c2nc3ccccc3[nH]2)cc1`, the GI50 in assay [1], in assay [2], in assay [3], in assay [4], in assay [5] and in assay [6] was > 100 µM (inactive) each time. The GI50 in [7] was > 100 µM (inactive); in assay [8] it was more than 100 µM; in [9] it was > 100 µM (inactive); in [17] it was > 100 µM (inactive); in assay [10] it was > 100 µM (inactive); in [11], > 100 µM (inactive). The GI50 in assay [12], in assay [13], in assay [14] and in [15] was > 100 µM (inactive) in each case.

Consider `Cc1nc2ccc(N)cc2nc1O`, for which the GI50 in assay [1] was > 100 µM (inactive); in assay [3], > 100 µM (inactive); in assay [4] it was > 100 µM (inactive); in [5], > 100 µM (inactive); in assay [7], > 100 µM (inactive); in [8], more than 100 µM. Further, the GI50 was 5.89 µM (inactive) in assay [9]; > 100 µM (inactive) in assay [17]; > 100 µM (inactive) in assay [10]; > 100 µM (inactive) in [12]; > 100 µM (inactive) in assay [13]; > 100 µM (inactive) in [14]. Moreover, the GI50 in assay [15] and in assay [16] was > 100 µM (inactive) in each case.

Values taken from ChEMBL document CHEMBL1201862, “PubChem BioAssay data set” (2004).
